# Experimental data published in US8663629B2, “Kallikrein-binding “kunitz domain” proteins and analogues thereof” (Dyax Corp., priority 1994, dated 2014).
# Bridge positions count the residues as written; N and C are the ends. Ends that are not written are not given here. * marks the point of attachment. CH2F = FC*
# Assays:
# [1] = target: pKA (plasma kallikrein) (Homo sapiens, UniProt P03952); test: biochemical
# Text: (§1) A second method appropriate for measuring the affinity of inhibitors for enzymes is to measure the ability of the inhibitor to slow the action of the enzyme. This method requires, depending on the speed at which the enzyme cleaves substrate and the availability of chromogenic or fluorogenic substrates, tens of micrograms to milligrams of relatively pure inhibitor.
# [2] = target: T1, Plasmin (Homo sapiens, UniProt P00747); test: biochemical
# Text: as §1
# [3] = target: T1, Plasmin; test: Display-phage binding to plasmin target (specificity); conditions: compared to the parental phage display LACI-K1
# [4] = target: Thrombin (Homo sapiens, UniProt P00734); test: Display-phage binding to thrombin target (specificity); conditions: compared to the parental phage display LACI-K1
# [5] = target: T2, plasma Kallikrein (Homo sapiens, UniProt P03952); test: Display-phage binding to human plasma kallikrein-agarose beads; parameters: The light chain (248 residues) carries the catalytic site; purchased Calbiochem #420302
# Experimental: This method is highly sensitive because the genetic packages can be amplified. We obtain at least semiquantitative values for the binding constants by use of a pH step gradient.
# The overall scheme for selecting a LACI(K1) variant to bind to a given protease involves incubation of the phage-display library with the kallikrein-beads of interest in a buffered solution (PBS containing 1 mg/ml BSA) followed by washing away the unbound and poorly retained display-phage variant with PBS containing 0.1% Tween 20. Kallikrein beads were made by coupling human plasma Kallikrein (Calbiochem, San Diego, Calif., #420302) to agarose beads using Reactigel (6×) (Pierce, Rockford, Ill., #202606). […]
# The neutralized eluted display-phage can be either used: • i) to inoculate an F^+ strain of E. coli to generate a new display-phage stock, to be used for subsequent rounds of selection (so-called conventional screening), or • ii) be used directly for another immediate round of selection with the protease beads (so-called quick screening). Typically, three rounds of either method, or a combination of the two, are performed to give rise to the final selected display-phage from which a representative number are sequenced and analyzed for binding properties either as pools of display-phage or as individual clones.
# Target sequence in this assay (P03952 391-638 limits assumed): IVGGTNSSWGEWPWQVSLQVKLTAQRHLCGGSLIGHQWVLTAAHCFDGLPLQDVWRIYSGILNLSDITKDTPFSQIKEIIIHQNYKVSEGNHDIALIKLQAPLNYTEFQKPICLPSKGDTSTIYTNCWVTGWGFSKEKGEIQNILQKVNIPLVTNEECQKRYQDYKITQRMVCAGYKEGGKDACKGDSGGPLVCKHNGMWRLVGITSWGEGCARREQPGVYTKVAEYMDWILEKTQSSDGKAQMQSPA
# Target sequence in this assay (P03952 20-390 limits assumed): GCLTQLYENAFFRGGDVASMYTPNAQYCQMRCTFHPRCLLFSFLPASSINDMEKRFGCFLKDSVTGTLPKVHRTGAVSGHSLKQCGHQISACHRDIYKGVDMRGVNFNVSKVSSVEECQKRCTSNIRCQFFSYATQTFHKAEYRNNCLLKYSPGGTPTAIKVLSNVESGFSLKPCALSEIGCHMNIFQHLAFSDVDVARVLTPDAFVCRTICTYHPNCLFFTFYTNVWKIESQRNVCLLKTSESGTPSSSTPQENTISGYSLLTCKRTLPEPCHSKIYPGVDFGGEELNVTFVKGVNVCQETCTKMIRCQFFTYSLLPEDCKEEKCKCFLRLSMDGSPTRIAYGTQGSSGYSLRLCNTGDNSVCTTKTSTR
# [6] = test system: Trypsin; test: Display-phage binding to trypsin target (specificity); conditions: compared to the parental phage display LACI-K1
# [7] = target: T2, plasma Kallikrein; conditions: ANGL87; cited from earlier work
# Target sequence in this assay (P03952 20-390): as the sequence (P03952 20-390 limits assumed) above
# Target sequence in this assay (P03952 391-638): as the sequence (P03952 391-638 limits assumed) above
# [8] = test system: Trypsin; conditions: ANGL87; cited from earlier work
# Chain of pKA (plasma kallikrein) (P03952 391-638 limits assumed): as above
# Chain of pKA (plasma kallikrein) (P03952 20-390 limits assumed): as the sequence (P03952 20-390 limits assumed) above
# T1 sequence (P00747 581-810 limits assumed, species assumed): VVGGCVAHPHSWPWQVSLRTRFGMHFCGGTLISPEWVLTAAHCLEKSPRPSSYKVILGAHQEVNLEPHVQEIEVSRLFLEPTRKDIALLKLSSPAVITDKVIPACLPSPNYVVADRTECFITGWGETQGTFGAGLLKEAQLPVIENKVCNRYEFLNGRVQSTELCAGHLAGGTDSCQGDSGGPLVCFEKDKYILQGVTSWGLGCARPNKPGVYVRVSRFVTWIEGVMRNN
# T1 sequence (P00747 97-580 partner limits assumed, species assumed): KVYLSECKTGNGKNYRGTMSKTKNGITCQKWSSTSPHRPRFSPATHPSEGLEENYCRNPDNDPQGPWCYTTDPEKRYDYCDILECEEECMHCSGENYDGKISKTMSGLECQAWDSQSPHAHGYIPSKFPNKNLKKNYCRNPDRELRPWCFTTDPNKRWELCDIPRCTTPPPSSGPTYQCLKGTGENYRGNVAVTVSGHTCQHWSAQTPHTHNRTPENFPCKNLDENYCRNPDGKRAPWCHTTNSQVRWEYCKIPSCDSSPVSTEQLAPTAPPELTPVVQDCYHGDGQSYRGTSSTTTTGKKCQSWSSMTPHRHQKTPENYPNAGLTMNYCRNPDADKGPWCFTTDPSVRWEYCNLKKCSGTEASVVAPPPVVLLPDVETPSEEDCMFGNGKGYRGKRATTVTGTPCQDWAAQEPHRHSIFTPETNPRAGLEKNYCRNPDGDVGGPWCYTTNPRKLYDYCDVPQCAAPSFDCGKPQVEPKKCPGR
substance,measurement,setting,value
"MHSFCAFKADDGHCKANHQRFFFNIFTRQCEEFSYGGCGGNQNRFESLEECKKMCTRD (disulfide 5-55, 14-38, 30-51) [KKII/3#6]",Ki,[1],< 0.5 nM
same,Ki for kallikrein,[1]; stated in words,nanomolar range
same,Ki for kallikrein relative to wild-type LACI and BPTI,[1]; versus both wild-type LACI and BPTI,over 100 times
same,Ki,[2],10 µM
bovine pancreatic trypsin inhibitor [BPTI],"relative binding of phage display clones, target Plasmin",[3],(88)^4
same,"relative binding of phage display clones, target Thrombin",[4],(1.1)
same,"relative binding of phage display clones, target Kallikrein",[5]; compared to the parental phage display LACI-K1,(1.7)
same,Relative Binding,[5]; fraction bound relative to the parental display-phage LACI(K1),6.0
same,"relative binding of phage display clones, target Trypsin",[6],(0.3)
same,"relative binding of phage display clones, target Trypsin, two washes",[6]; two washes,(0.8)
Ala-Phe-Lys-CH2F,inhibition of plasma kallikrein,[7],active-centre-directed inhibitor
same,inhibition of trypsin,[8],active-centre-directed inhibitor
